The species named for one experiment is Rattus norvegicus. The experiment is described as follows: Inhibition of rat intestinal alpha-glucosidase at 100 uM.
The nature of experiment [1]: Inhibition of rat intestinal alpha-glucosidase.

As to `CCOC(=O)[C@H]1[C@H](C2O[C@@H]3OC(C)(C)O[C@@H]3[C@H]2OCc2ccccc2)[C@@H](C(=O)O)N[C@H]1c1ccc(Br)cc1` (single isomer, unassigned), the inhibition – broadly, the percentage by which the read-out fell short of the control – in the experiment listed under Rattus norvegicus amounted to 8.1%.
In the case of `CCOC(=O)[C@H]1[C@H]([C@@H]2O[C@@H]3OC(C)(C)O[C@@H]3[C@H]2OCc2ccccc2)[C@@H](C(=O)OCC)N[C@H]1c1cccc([N+](=O)[O-])c1`, in experiment [1], the IC50 (as a rule, the midpoint of a concentration-inhibition curve) worked out at 61 µM and affinity was put at a Ki of 33 µM. Also, the inhibition in the experiment listed under Rattus norvegicus was determined as 82.7%.
With `CCOC(=O)[C@H]1[C@H](C2O[C@@H]3OC(C)(C)O[C@@H]3[C@H]2OCc2ccccc2)[C@@H](C(=O)OCC)N[C@H]1c1cc(Cl)ccc1Cl` (single isomer, unassigned), in experiment [1], the IC50 amounted to 99 µM and the affinity, expressed as Ki, was 65 µM. Further, the inhibition in the experiment listed under Rattus norvegicus worked out at 67.2%.
Compound `CCOC(=O)[C@H]1[C@H](C2O[C@@H]3OC(C)(C)O[C@@H]3[C@H]2OC)[C@@H](C(=O)OCC)N[C@H]1c1ccc(Br)cc1` (single isomer, unassigned) returned an inhibition in the experiment listed under Rattus norvegicus of 26.8%.
The same measure, in the same setting: then `CCOC(=O)[C@H]1[C@H](C2O[C@@H]3OC(C)(C)O[C@@H]3[C@H]2OCc2ccccc2)[C@@H](C(=O)O)N[C@H]1c1cccc([N+](=O)[O-])c1` (single isomer, unassigned), with 10.3%; and `CCOC(=O)[C@H]1[C@H](C2O[C@@H]3OC(C)(C)O[C@@H]3[C@H]2OCc2ccccc2)[C@@H](C(=O)O)N[C@H]1c1cccc(Cl)c1` (single isomer, unassigned), with 24.1%.
On the same count and under the same terms, with `CCOC(=O)[C@H]1[C@H](C2O[C@@H]3OC(C)(C)O[C@@H]3[C@H]2OCc2ccccc2)[C@@H](C(=O)O)N[C@H]1c1cccnc1` (single isomer, unassigned) the figure was 5.1%.
`C[C@H]1O[C@H](O[C@H]2[C@H](O)[C@@H](O)[C@@H](O[C@H]3[C@H](O)[C@@H](O)C(O)O[C@@H]3CO)O[C@@H]2CO)[C@H](O)[C@@H](O)[C@@H]1N[C@H]1C=C(CO)[C@@H](O)[C@H](O)[C@H]1O` (stereo partly drawn) registered an inhibition in the experiment filed under Rattus norvegicus of 39%.
Consider `CCOC(=O)[C@H]1[C@H](C2O[C@@H]3OC(C)(C)O[C@@H]3[C@H]2OCc2ccccc2)[C@@H](C(=O)OCC)N[C@H]1c1ccc(F)cc1` (single isomer, unassigned), for which, in experiment [1], it took 75 µM to reach half-maximal inhibition (IC50); the Ki (in general, the dissociation constant of the complex between target and ligand, obtained from inhibition or displacement) was found to be 40 µM. In the experiment listed under Rattus norvegicus, this compound registered an inhibition of 43.1%.
For the compound `CCOC(=O)[C@H]1[C@H](C2O[C@@H]3OC(C)(C)O[C@@H]3[C@H]2OCc2ccccc2)[C@@H](C(=O)OCC)N[C@H]1c1ccc(Br)cc1` (single isomer, unassigned), in experiment [1], the IC50 came out at 64 µM and the Ki is 36 µM. Moreover, the inhibition in the experiment listed under Rattus norvegicus came out at 79.3%.
Regarding `CCOC(=O)[C@H]1[C@H](C2O[C@@H]3OC(C)(C)O[C@@H]3[C@H]2OCc2ccccc2)[C@@H](C(=O)OCC)N[C@H]1c1cccnc1` (single isomer, unassigned), the inhibition in the experiment listed under Rattus norvegicus stood at 29.3%.
`CCOC(=O)[C@H]1[C@H](C2O[C@@H]3OC(C)(C)O[C@@H]3[C@H]2OCc2ccccc2)[C@@H](C(=O)O)N[C@H]1c1cc(Cl)ccc1Cl` (single isomer, unassigned) gave an inhibition in the experiment listed under Rattus norvegicus of 10.5%.
In experiment [1], `CCOC(=O)[C@H]1[C@H](C2O[C@@H]3OC(C)(C)O[C@@H]3[C@H]2OCc2ccccc2)[C@@H](C(=O)OCC)N[C@H]1c1cccc(Cl)c1` (single isomer, unassigned) had an IC50 of 96 µM and an inhibitory constant (Ki) of 79 µM. The compound also registered an inhibition in the experiment listed under Rattus norvegicus of 65.5%.
